{"source": "patent US4301065A", "about": "“Novel polypeptides having thymic activity or an antagonistic activity and processes for their synthesis” (Agence Nationale de Valorisation de la Recherche (ANVAR), priority 1977, dated 1981)", "key": {"thymectomised mice [1]": {"system": "thymectomised mice", "assay": "Kinetics of the activity in the serum after injection of peptide without carboxymethyl cellulose", "type": "in vivo", "details": "1 ng of polypeptide injected into thymectomised mice; active serum dilutions against time; FIGS. 1 to 3", "from_the_text": "These kinetics have also been established for active products, but without any delay action, by way of comparison. The results of these tests have been established in the form of curves in FIGS. 1, 2 and 3 of the accompanying drawings."}, "thymectomised mice [2]": {"system": "thymectomised mice", "assay": "Activity in vivo: study of the serum after injection of peptide absorbed on carboxymethyl cellulose", "protocol": "The peptides active in vitro were also checked in tests carried out in vivo. Injected into 6 weeks old thymectomised mice and used 8 weeks after the thymectomy, the peptides produce the appearance at the 15th minute in the serum of a biological activity conferring the sensitivity to the azothioprine of the spleen cells forming rosettes. […] (2) Activity in vivo (study of the serum 2 hours and 4 hours after injection into thymectomised mice in different quantities (0.1, 1 or 10 ng) of peptide absorbed on carboxymethyl cellulose). The results of the tests in vivo on the serum and on the spleen, set out in Tables II, III and IV, were established by the procedure as previously indicated."}, "antibodies": {"system": "antibodies", "assay": "Bonding with the antibodies", "type": "binding", "design": "key: +: the peptide is bonded; -: is not bonded to the antibodies", "from_the_text": "The suitability of the peptides for being bonded to the antibodies is indicated by the + and - symbols, which respectively signify that the peptide is bonded or is not bonded to the antibodies."}, "[3]": {"system": "rosette-forming cells of the spleen of thymectomised mice", "assay": "Test in vivo on the spleen: correction of the reactivity of rosette-forming spleen cells to azathioprine", "details": "Table IV, quantity injected 0,1 ng, individual values", "protocol": "(3) Correction of the abnormal reactivity of the cells forming the rosettes of the spleen with azathioprine in thymectomised mice 24 hours after injecting the peptide (0.1, 1 and 10 ng) bonded to the carboxymethyl cellulose.\nThe tests on the spleen were carried out by determining the quantity of azathioprine which is necessary for inhibiting the rosette-forming cells of the spleen of thymectomised mice after an established time (24 hours and possibly also 48 hours) after the injection of an established quantity of polypeptide (0.1, 1 or 10 ng)."}, "[4]": {"system": "cells of the spleen forming rosettes (RFC)", "assay": "Rosette test in vitro (thymic activity)", "type": "cell-based, adult C 57/B1 6 mice", "details": "for Activity in the rosette test (control peptides): in vitro, control peptides of similar molecular weight", "protocol": "The thymic activity of the polypeptide is established by incubation in a hemolysis tube with 3×10^6 cells of the spleen originating from adult C 57/B1 6 mice (supplied by the Centre d'Elevage des Animaux de Laboratoire of C.N.R.S. (45 Orleans, La Source), thymectomised 10 to 20 days previously. The thymectomy method is described by M. Dardenne and J. F. Bach in Immunology, 25, 343 (1973) on page 344. The contents of this article are incorporated herein by reference.\nThe incubation is carried out for 90 minutes at 37° C. in the presence of azathioprine (Az) at a concentration of 10 μg/ml.\nOn completion of the incubation, 12×10^6 red cells from sheep's blood (SRBC) are added to the cells in the test specimen. The cells in the specimen are centrifuged for 6 minutes at 200 g and carefully brought gently into suspension by rotation on a roller (diameter 10 cm) at a low speed (10 r.p.m.). The RFC are counted in a hematocytometer.\n(1) Activity in vitro in the rosette test."}}, "note": "Square brackets hold non-standard residues; d marks the D form. Ends that are not written are not given here. Peptide text beside a SMILES is read from it. pGlu = O=C1CC[C@@H](C(=O)O)N1; βAla = NCCC(=O)O", "data": [{"compound": "CC(=O)NCCCC[C@H](NC(=O)[C@H](C)NC(=O)[C@@H]1CCC(=O)N1)C(=O)N[C@@H](CO)C(=O)N[C@@H](CCC(N)=O)C(=O)NCC(=O)NCC(=O)N[C@@H](CO)C(=O)N[C@@H](CC(N)=O)C(=O)O", "note": "[Peptide 62, PyroGlu-Ala-Lys(Ac)-Ser-Gln-Gly-Gly-Ser-Asn] ([pGlu]AK(Ac)SQGGSN-OH)", "values": [{"measurement": "Time of the activity peak in the serum after injection", "setting": "thymectomised mice [1]", "value": "~45", "unit": "min"}]}, {"compound": "C[C@H](NC(=O)[C@@H]1CCC(=O)N1)C(=O)N[C@@H](CCCCN)C(=O)N[C@@H](CO)C(=O)N[C@@H](CCC(N)=O)C(=O)NCC(=O)NCC(=O)N[C@@H](CO)C(=O)NCCC(N)=O", "note": "[Peptide 86, PyroGlu-Ala-Lys-Ser-Gln-Gly-Gly-Ser-β-Ala-NH2] ([pGlu]AKSQGGS[βAla]-NH2)", "values": [{"measurement": "Activity in vivo", "setting": "thymectomised mice [2]; Table I, thymectomised mice", "value": "+ (active)"}, {"measurement": "Active or inactive polypeptide (conclusion from Tables I to IV)", "setting": "thymectomised mice [2]; overall judgement of the tests in vitro and in vivo", "value": "active"}, {"measurement": "Bonding with the antibodies", "setting": "antibodies; Table I", "value": "-"}, {"measurement": "Bonding with the antibodies", "setting": "antibodies; Table IV", "value": "-"}, {"measurement": "Spleens (test in vivo) 24 hours after injection: Quantity of azathioprine", "setting": "[3]", "value": 12, "unit": "µg"}, {"measurement": "Activity in vitro", "setting": "[4]; Table I, rosette test", "value": "+ (active)"}, {"measurement": "Active concentration (ng/ml) (test in vitro)", "setting": "[4]; Table III, rosette test, azathioprine 10 μg/ml, 90 minutes at 37° C.", "value": "7.10^-3 ng/ml"}]}, {"compound": "C[C@H](NC(=O)[C@@H]1CCC(=O)N1)C(=O)N[C@@H](CCCCN)C(=O)N[C@@H](CO)C(=O)N[C@@H](CCC(N)=O)C(=O)N[C@H](C)C(=O)NCC(=O)N[C@@H](CO)C(=O)N[C@@H](CC(N)=O)C(=O)O", "note": "[Peptide 89, PyroGlu-Ala-Lys-Ser-Gln-D-Ala-Gly-Ser-Asn] ([pGlu]AKSQ[dA]GSN-OH)", "values": [{"measurement": "Time of the activity peak in the serum after injection", "setting": "thymectomised mice [1]", "value": "~60", "unit": "min"}]}, {"compound": "Cn1cnc([N+](=O)[O-])c1Sc1ncnc2nc[nH]c12", "note": "[azathioprine]", "values": [{"measurement": "IC50", "setting": "[4]; Mus musculus, spleen cells coming from normal mice, read-out: minimal concentration of Az inhibiting 50% of the cells of the spleen forming rosettes (RFC)", "value": 1, "unit": "µg/mL"}]}, {"compound": "angiotensine", "values": [{"measurement": "Activity in the rosette test (control peptides)", "setting": "[4]", "value": "inactive"}]}, {"compound": "substance P (RPKPQQFFGLM; ends and bridges not checked; UniProt P20366 58-68, looked up) [control peptide of similar molecular weight]", "values": [{"measurement": "Activity in the rosette test (control peptides)", "setting": "[4]", "value": "inactive"}]}]}
